According to patent US20050004132A1, “Nitrogenous tetrahydropyridyl-alkyl-heterocycles with tnf activity” (priority 2001, published 2005):
Structures can show the parent of a compound that is named as a salt.

melting point | SMILES
199 to 201 °C | FC(F)(F)c1cccc(C2=CCN(CCc3cccc(-c4cnccn4)c3)CC2)c1 (as salt: oxalate) [14]
126 to 129 °C | FC(F)(F)c1cccc(C2=CCN(CCc3cccc(-c4ccccn4)c3)CC2)n1 (as salt: oxalate)
183 to 186 °C | Clc1cccc(C2=CCN(CCc3cccc(-c4ccncc4)c3)CC2)n1 (as salt: oxalate)
182 to 186 °C | FC(F)(F)c1cccc(C2=CCN(CCc3cccc(-c4ccccn4)c3)CC2)c1 (as salt: oxalate)
170 to 173 °C | Cc1ccc(-c2cccc(CCN3CC=C(c4cccc(C(F)(F)F)c4)CC3)c2)cn1 (as salt: oxalate)
205 to 207 °C | FC(F)(F)c1cccc(C2=CCN(CCc3cccc(-c4cnccn4)c3)CC2)c1 (as salt: oxalate) [12]
175 to 177 °C | Fc1cccc(C2=CCN(CCc3cccc(-c4ccccn4)c3)CC2)c1 (as salt: oxalate)
